# Test results taken from the supplement of paper PMC10307832.
# Columns and labels:
# Test in all cases: relative viability (nuclei count vs DMSO), 5 days (fraction); higher = more cells survive
# BEN = test system: BEN
# Summary of the method: (§1)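 Each reported value is a median over duplicate plates. It expresses relative viability: treated-well nuclei count divided by vehicle-well nuclei count. Lung cancer cell lines in 1536-well plates were dosed by pin tool a day after seeding, alone with one drug or with a fixed anchor-drug dose plus five library-drug doses (not always all listed) in √10 steps, and nuclei were counted after 5 days.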
# CAL-12T = test system: CAL-12T
# Summary of the method: as §1
# COR-L 105 = test system: COR-L 105
# Summary of the method: as §1
# COR-L23 = test system: COR-L23
# Summary of the method: as §1
# HARA = test system: HARA
# Summary of the method: as §1
# HCC-15 = test system: HCC-15
# Summary of the method: as §1
# HCC-366 = test system: HCC-366
# Summary of the method: as §1
# HCC-44 = test system: HCC-44
# Summary of the method: as §1
# HCC-827 = test system: HCC-827
# Summary of the method: as §1
# HOP-62 = test system: HOP-62
# Summary of the method: as §1
# LC-2-ad = test system: LC-2-ad
# Summary of the method: as §1
# LCLC-97TM1 = test system: LCLC-97TM1
# Summary of the method: as §1
compound,measurement,setting,value
O=c1[nH]c2ccccc2n1C1CCN(CCCC(c2ccc(F)cc2)c2ccc(F)cc2)CC1 [Pimozide] + N=C(N)NC(=N)NCCc1ccccc1 [Phenformin] (partner 250 µM),relative viability,BEN; first compound 0.08 µM,0.278
same,relative viability,BEN; first compound 0.253 µM,0.274
same,relative viability,BEN; first compound 0.8 µM,0.258
same,relative viability,BEN; first compound 2.53 µM,0.289
same,relative viability,BEN; first compound 8 µM,0.3
same,relative viability,CAL-12T; first compound 0.08 µM,0.581
same,relative viability,CAL-12T; first compound 0.253 µM,0.506
same,relative viability,CAL-12T; first compound 0.8 µM,0.623
same,relative viability,CAL-12T; first compound 2.53 µM,0.496
same,relative viability,CAL-12T; first compound 8 µM,0.575
same,relative viability,COR-L 105; first compound 0.253 µM,0.519
same,relative viability,COR-L 105; first compound 0.8 µM,0.512
same,relative viability,COR-L 105; first compound 2.53 µM,0.471
same,relative viability,COR-L 105; first compound 8 µM,0.473
same,relative viability,COR-L23; first compound 0.08 µM,0.455
same,relative viability,COR-L23; first compound 0.253 µM,0.479
same,relative viability,COR-L23; first compound 0.8 µM,0.407
same,relative viability,COR-L23; first compound 2.53 µM,0.456
same,relative viability,COR-L23; first compound 8 µM,0.49
same,relative viability,HARA; first compound 0.253 µM,0.503
same,relative viability,HARA; first compound 0.8 µM,0.405
same,relative viability,HARA; first compound 2.53 µM,0.423
same,relative viability,HARA; first compound 8 µM,0.431
same,relative viability,HCC-15; first compound 0.08 µM,0.511
same,relative viability,HCC-15; first compound 0.253 µM,0.431
same,relative viability,HCC-15; first compound 0.8 µM,0.432
same,relative viability,HCC-15; first compound 2.53 µM,0.433
same,relative viability,HCC-15; first compound 8 µM,0.448
same,relative viability,HCC-366; first compound 0.08 µM,0.664
same,relative viability,HCC-366; first compound 0.253 µM,0.609
same,relative viability,HCC-366; first compound 0.8 µM,0.528
same,relative viability,HCC-366; first compound 2.53 µM,0.535
same,relative viability,HCC-366; first compound 8 µM,0.469
same,relative viability,HCC-44; first compound 0.08 µM,0.253
same,relative viability,HCC-44; first compound 0.253 µM,0.206
same,relative viability,HCC-44; first compound 0.8 µM,0.138
same,relative viability,HCC-44; first compound 2.53 µM,0.142
same,relative viability,HCC-44; first compound 8 µM,0.278
same,relative viability,HCC-827; first compound 0.253 µM,0.403
same,relative viability,HCC-827; first compound 0.8 µM,0.464
same,relative viability,HCC-827; first compound 2.53 µM,0.443
same,relative viability,HCC-827; first compound 8 µM,0.42
same,relative viability,HOP-62; first compound 0.08 µM,0.67
same,relative viability,HOP-62; first compound 0.253 µM,0.657
same,relative viability,HOP-62; first compound 2.53 µM,0.644
same,relative viability,HOP-62; first compound 8 µM,0.655
same,relative viability,LC-2-ad; first compound 0.08 µM,0.573
same,relative viability,LC-2-ad; first compound 0.253 µM,0.558
same,relative viability,LC-2-ad; first compound 0.8 µM,0.571
same,relative viability,LC-2-ad; first compound 2.53 µM,0.623
same,relative viability,LC-2-ad; first compound 8 µM,0.605
same,relative viability,LCLC-97TM1; first compound 0.08 µM,0.487
same,relative viability,LCLC-97TM1; first compound 0.253 µM,0.403
same,relative viability,LCLC-97TM1; first compound 0.8 µM,0.356
